Laboratory results taken from patent US20220218852A1, “NOVEL RADIOLABELLED CXCR4-TARGETING COMPOUNDS FOR DIAGNOSIS AND THERAPY” (PROVINCIAL HEALTH SERVICES AUTHORITY, priority 2019, published 2022).
Where two headings read alike, the source gives them in different places. Positions of bridges follow the written chain, without caps; N, C: chain ends. Non-standard residues stand in square brackets, D forms with d. Residues, ends and D or L forms follow the SMILES beside them. Groups on a side chain read outwards from the residue. *: point of attachment. DOTA = O=C(O)CN1CCN(CC(=O)O)CCN(CC(=O)*)CCN(CC(=O)O)CC1; 2Nal = N[C@@H](Cc1ccc2ccccc2c1)C(=O)O; Lys(iPr) = CC(C)NCCCC[C@H](N)C(=O)O

What was measured:
[1] = Biodistribution in Daudi tumor-bearing mice; assay type: in vivo; conditions: male, NOD.Cg-Rag1^tm1MomII2rg^tm1Wjl/SzJ (NRG), mouse, iv, total radioactivity, Daudi
Procedure: (§1) For Daudi, Z138, GRANTA519 and Jeko1 xenografts, male NOD.Cg-Rag1^tm1MomII2rg^tm1Wjl/SzJ (NRG) mice were subcutaneously inoculated on the left flank with 5×10^6 cells (100 μL; 1:1 ratio of PBS/Matrigel) and tumors were grown to a size of 200-500 mm^3. For PC-3 xenografts, male NOD.Cg-Rag1^tm1MomII2rg^tm1Wjl/SzJ (NRG) mice were subcutaneously inoculated on the left flank with 5×10^6 PC-3 cells (100 μL; 1:1 ratio of PBS/Matrigel) and tumors were grown to a size of 200-400 mm^3.
(§2) The mice were euthanized via CO2 inhalation while anesthetized with isoflurane. Tissues were harvested, washed in PBS, blotted dry, weighed, and measured on a Hidex AMG Automatic Gamma Counter.

[2] = test system: Daudi Burkitt's lymphoma xenografts; experiment: Biodistribution in Daudi tumor-bearing mice; assay type: in vivo; conditions: Daudi
Procedure: as §1, §2

[3] = 1 h blocked (7.5 μg LY2510924 i.p.)

CC(C)NCCCC[C@@H]1NC(=O)[C@H](Cc2ccc(O)cc2)NC(=O)[C@H](Cc2ccccc2)NC(=O)CC[C@H](C(=O)N[C@@H](CCCCNC(C)C)C(=O)N[C@@H](CCCCNC(=O)[C@H](CCC(=O)O)NC(=O)[C@H](CCC(=O)O)NC(=O)[C@H](CCC(=O)O)NC(=O)CN2CCN(CC(=O)O)CCN(CC(=O)O)CCN(CC(=O)O)CC2)C(N)=O)NC(=O)CNC(=O)[C@H](Cc2ccc3ccccc3c2)NC(=O)[C@@H](CCCNC(=N)N)NC1=O [[^68Ga]Ga-BL02, metal not drawn] (FY[Lys(iPr)][dR][2Nal]G[dE][Lys(iPr)]K([Glu-Glu-Glu-DOTA])-NH2; lactam N-7)
tissue uptake at 1 h ([1]; blood, 1 h, read-out: Biodistribution Blood): 0.31 %ID/g | tissue uptake at 1 h ([1]; blood, 1 h blocked (7.5 μg LY2510924 i.p.), read-out: Biodistribution Blood): 0.5 %ID/g | tissue uptake at 2 h ([1]; blood, read-out: Biodistribution Blood): 0.08 %ID/g | tissue uptake at 1 h ([1]; fat, 1 h, read-out: Biodistribution Fat): 0.05 %ID/g | tissue uptake at 1 h ([1]; fat, 1 h blocked (7.5 μg LY2510924 i.p.), read-out: Biodistribution Fat): 0.07 %ID/g | tissue uptake at 2 h ([1]; fat, read-out: Biodistribution Fat): 0.02 %ID/g | tissue uptake at 1 h ([1]; tumor, 1 h blocked (7.5 μg LY2510924 i.p.), read-out: Biodistribution Daudi (tumor)): 0.8 %ID/g | tissue uptake at 2 h ([1]; tumor, read-out: Biodistribution Daudi (tumor)): 7.78 %ID/g | Biodistribution Adrenals ([2]; 1 h): 0.36 % ID/g | Biodistribution Bone ([2]; 1 h): 0.19 % ID/g | Biodistribution Brain ([2]; 1 h): 0.02 % ID/g | Biodistribution Daudi (tumor) ([2]; 1 h): 8.52 % ID/g | Biodistribution Heart ([2]; 1 h): 0.13 % ID/g | Biodistribution Intestine ([2]; 1 h): 0.22 % ID/g | Biodistribution Kidney ([2]; 1 h): 4.18 % ID/g | Biodistribution Liver ([2]; 1 h): 0.59 % ID/g | Biodistribution Lung ([2]; 1 h): 0.48 % ID/g | Biodistribution Muscle ([2]; 1 h): 0.10 % ID/g | Biodistribution Pancreas ([2]; 1 h): 0.18 % ID/g | Biodistribution Spleen ([2]; 1 h): 0.53 % ID/g | Biodistribution Stomach ([2]; 1 h): 0.07 % ID/g | Biodistribution Testes ([2]; 1 h): 0.11 % ID/g | Ratio Tumor: Blood ([2]; 1 h): 30.57 | Ratio Tumor: Bone ([2]; 1 h): 48.04 | Ratio Tumor: Liver ([2]; 1 h): 14.30 | Ratio Tumor: Lung ([2]; 1 h): 18.07 | Ratio Tumor: Muscle ([2]; 1 h): 80.77 | Ratio Tumor: Spleen ([2]; 1 h): 17.18 | Biodistribution Adrenals [2, 3]: 0.32 % ID/g | Biodistribution Bone [2, 3]: 0.20 % ID/g | Biodistribution Brain [2, 3]: 0.02 % ID/g | Biodistribution Heart [2, 3]: 0.14 % ID/g | Biodistribution Intestine [2, 3]: 0.31 % ID/g | Biodistribution Kidney [2, 3]: 4.63 % ID/g | Biodistribution Liver [2, 3]: 0.55 % ID/g | Biodistribution Lung [2, 3]: 0.58 % ID/g | Biodistribution Muscle [2, 3]: 0.09 % ID/g | Biodistribution Pancreas [2, 3]: 0.12 % ID/g | Biodistribution Spleen [2, 3]: 0.23 % ID/g | Biodistribution Stomach [2, 3]: 0.07 % ID/g | Biodistribution Testes [2, 3]: 0.15 % ID/g | Ratio Tumor: Blood [2, 3]: 1.71 | Ratio Tumor: Bone [2, 3]: 4.44 | Ratio Tumor: Liver [2, 3]: 1.47 | Ratio Tumor: Lung [2, 3]: 1.43 | Ratio Tumor: Muscle [2, 3]: 9.23 | Ratio Tumor: Spleen [2, 3]: 3.57 | Biodistribution Adrenals ([2]; 2 h): 0.21 % ID/g | Biodistribution Bone ([2]; 2 h): 0.09 % ID/g | Biodistribution Brain ([2]; 2 h): 0.01 % ID/g | Biodistribution Heart ([2]; 2 h): 0.05 % ID/g | Biodistribution Intestine ([2]; 2 h): 0.12 % ID/g | Biodistribution Kidney ([2]; 2 h): 3.40 % ID/g | Biodistribution Liver ([2]; 2 h): 0.54 % ID/g | Biodistribution Lung ([2]; 2 h): 0.27 % ID/g | Biodistribution Muscle ([2]; 2 h): 0.04 % ID/g | Biodistribution Pancreas ([2]; 2 h): 0.05 % ID/g | Biodistribution Spleen ([2]; 2 h): 0.24 % ID/g | Biodistribution Stomach ([2]; 2 h): 0.07 % ID/g | Biodistribution Testes ([2]; 2 h): 0.05 % ID/g | Ratio Tumor: Blood ([2]; 2 h): 114.6 | Ratio Tumor: Bone ([2]; 2 h): 87.81 | Ratio Tumor: Liver ([2]; 2 h): 14.47 | Ratio Tumor: Lung ([2]; 2 h): 31.68 | Ratio Tumor: Muscle ([2]; 2 h): 216.0 | Ratio Tumor: Spleen ([2]; 2 h): 36.06
